From US20220204498A1, “PYRIDO-PYRIMIDINYL COMPOUNDS AND METHODS OF USE” (Genentech, Inc., priority 2019, published 2022)
Counter-ions that a name gives are not always drawn.

Target: T1, IRE1α (Homo sapiens, UniProt O75460, D688N)
T1 construct: containing the kinase and RNase domains (KR, AA G547-1L977, D688N); made in house; host or cells: Sf9 insect cells
Assay: IRE1α TR-FRET competition binding assay (IRE1α HTRF)
Conditions: His-tagged IRE1α kinase dead construct (KR, D688N) 0.25 nM; Alexa fluor 647-labeled ATP competitive probe 2 nM; one hour at room temperature; read-out: IRE1α (alpha) HTRF (IC50)
Experimental: Example 59. IRE1α TR-FRET Competition Binding Assay
To determine the affinity of compound binding to the kinase domain of IRE1α, a time-resolved fluorescence resonance energy transfer (TR-FRET) competition assay was used.
A His-tagged IRE1α kinase dead construct containing the kinase and RNase domains (KR, AA G547-1L977, D688N) was expressed in Sf9 insect cells. The purified protein (final concentration 0.25 nM) was pre-incubated with anti-His Europium labeled antibody (Life Technologies PV5596, final concentration 2 nM) for one hour at 4° C. in TR-FRET Assay Buffer (50 mM HEPES, pH 7.5, 10 mM MgCl2, 0.083 mM Brij 35, 1 mM DTT, and 0.1% bovine gamma globulin) prior to addition to test compounds. An Alexa fluor 647-labeled probe based on an ATP competitive inhibitor was added to a final concentration of 2 nM. Reactions were carried out for one hour at room temperature in a final volume of 20 μL in 384 well white ProxiPlates (Perkin Elmer 6008289). Binding of the probe to the IRE1α protein was detected in an Envision instrument (PerkinElmer) equipped with a TRF laser option and a LANCE/Delfia Dual/Bias D400/D630 mirror (Ex 347 nm, 1st Em 665 nm, 2nd Em 615 nm).

T1 sequence (O75460 547-977 D688N): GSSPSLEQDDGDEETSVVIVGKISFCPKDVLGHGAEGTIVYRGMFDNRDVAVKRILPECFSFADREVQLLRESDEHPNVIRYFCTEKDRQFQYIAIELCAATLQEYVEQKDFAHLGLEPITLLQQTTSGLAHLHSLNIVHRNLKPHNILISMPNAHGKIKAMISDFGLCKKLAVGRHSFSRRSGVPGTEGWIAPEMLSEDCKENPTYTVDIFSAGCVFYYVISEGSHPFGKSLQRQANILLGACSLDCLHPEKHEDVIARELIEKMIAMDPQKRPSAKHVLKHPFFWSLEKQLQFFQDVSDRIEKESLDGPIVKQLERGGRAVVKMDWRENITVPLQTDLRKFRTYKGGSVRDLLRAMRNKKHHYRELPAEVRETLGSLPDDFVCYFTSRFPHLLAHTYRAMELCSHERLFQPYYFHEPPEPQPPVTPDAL

IC50	SMILES
0.32 nM	CCCS(=O)(=O)Nc1ccc(-c2cc(C)c3nc(N[C@H]4CC[C@H](N(C)C)CC4)ncc3n2)cc1F [Compound 112, N-(4-(2-(((1,4-trans)-4-(Dimethylamino)cyclohexyl)amino)-8-methylpyrido[3,2-d]pyrimidin-6-yl)-2-fluorophenyl)propane-1-sulfonamide formate]
1.1 nM	CC(Oc1nc2nc(N[C@@H]3CNC[C@@H](F)C3)ncc2cc1-c1ccc(NS(=O)(=O)Cc2ccccc2)c(F)c1F)C(F)F (single isomer, unassigned) [Compound 103]
0.19 nM	Cc1cc(-c2cc(F)c(NS(=O)(=O)c3ccccc3Cl)c(F)c2F)nc2cnc(N[C@H]3CC[C@H](N(C)C)CC3)nc12 [Compound 155, 2-Chloro-N-(4-(2-(((1,4-trans)-4-(dimethylamino)cyclohexyl)amino)-8-methylpyrido[3,2-d]pyrimidin-6-yl)-2,3,6-trifluorophenyl)benzenesulfonamide]
2.1 nM	CCCS(=O)(=O)Nc1ccc(-c2cc(C)c3nc(N[C@@H]4CNC[C@@H](F)C4)ncc3n2)cc1F [Compound 111, N-(2-Fluoro-4-(2-(((3S,5S)-5-fluoropiperidin-3-yl)amino)-8-methylpyrido[3,2-d]pyrimidin-6-yl)phenyl)propane-1-sulfonamide]
0.28 nM	CCc1cc(-c2ccc(NS(=O)(=O)c3ccccc3C(F)F)nc2C)nc2cnc(N[C@H]3CC[C@H](N(C)C)CC3)nc12 [Compound 147, 2-(Difluoromethyl)-N-(5-(2-(((1,4-trans)-4-(dimethylamino)cyclohexyl)amino)-8-ethylpyrido[3,2-d]pyrimidin-6-yl)-6-methylpyridin-2-yl)benzenesulfonamide]
1.1 nM	Cc1cc(-c2ccc(NS(=O)(=O)CCC(F)(F)F)c(F)c2)nc2cnc(N[C@@H]3CNC[C@@H](F)C3)nc12 [Compound 110, 3,3,3-Trifluoro-N-(2-fluoro-4-(2-(((3S,5S)-5-fluoropiperidin-3-yl)amino)-8-methylpyrido[3,2-d]pyrimidin-6-yl)phenyl)propane-1-sulfonamide]
0.16 nM	Cc1cc(-c2ccc(NS(=O)(=O)c3ccccc3Cl)c(F)c2)nc2cnc(N[C@H]3CC[C@H](N(C)C)CC3)nc12 [Compound 128, 2-Chloro-N-(4-(2-(((1,4-trans)-4-(dimethylamino)cyclohexyl)amino)-8-methylpyrido[3,2-d]pyrimidin-6-yl)-2-fluorophenyl)benzenesulfonamide]
0.25 nM	Cc1nc(NS(=O)(=O)c2ccccc2Cl)ccc1-c1cc(C(F)F)c2nc(N[C@H]3CC[C@H](N(C)C)CC3)ncc2n1 [Compound 145, 2-Chloro-N-[5-[8-(difluoromethyl)-2-[[(1,4-trans)-4-(dimethylamino)cyclohexyl]amino]pyrido[3,2-d]pyrimidin-6-yl]-6-methyl-2-pyridyl]benzenesulfonamide]
0.51 nM	CCc1cc(-c2ccc(NS(=O)(=O)c3ccccc3OC(F)F)nc2C)nc2cnc(N[C@H]3CC[C@H](N(C)C)CC3)nc12 [Compound 148, 2-(Difluoromethoxy)-N-(5-(2-(((1,4-trans)-4-(dimethylamino)cyclohexyl)amino)-8-ethylpyrido[3,2-d]pyrimidin-6-yl)-6-methylpyridin-2-yl)benzenesulfonamide]
3.3 nM	Cc1cc(NS(=O)(=O)c2ccccc2Cl)ncc1-c1cc(C)c2nc(N[C@H]3CC[C@H](N(C)C)CC3)ncc2n1 [Compound 149, 2-Chloro-N-(5-(2-(((1,4-trans)-4-(dimethylamino)cyclohexyl)amino)-8-methylpyrido[3,2-d]pyrimidin-6-yl)-4-methylpyridin-2-yl)benzenesulfonamide]
0.2 nM	Cc1cc(-c2cc(F)c(NS(=O)(=O)Cc3ccccc3)c(F)c2)nc2cnc(N[C@@H]3CNC[C@@H](F)C3)nc12 [Compound 108, N-(2,6-Difluoro-4-(2-(((3S,5S)-5-fluoropiperidin-3-yl)amino)-8-methylpyrido[3,2-d]pyrimidin-6-yl)phenyl)-1-phenylmethanesulfonamide]
0.44 nM	Cc1cc(-c2ccc(NS(=O)(=O)CCC(F)(F)F)nc2)nc2cnc(N[C@H]3CC[C@H](N(C)C)CC3)nc12 [Compound 125, N-(5-(2-(((1,4-trans)-4-(Dimethylamino)cyclohexyl)amino)-8-methylpyrido[3,2-d]pyrimidin-6-yl)pyridin-2-yl)-3,3,3-trifluoropropane-1-sulfonamide]
0.26 nM	Cc1cc(-c2ccc(NS(=O)(=O)Cc3ccc(F)cc3F)c(F)c2)nc2cnc(N[C@@H]3CNC[C@@H](F)C3)nc12 [Compound 115, 1-(2,4-Difluorophenyl)-N-(2-fluoro-4-(2-(((3S,5S)-5-fluoropiperidin-3-yl)amino)-8-methylpyrido[3,2-d]pyrimidin-6-yl)phenyl)methanesulfonamide]
0.32 nM	Cc1cc(-c2ccc(NS(=O)(=O)c3ccccc3Cl)nc2)nc2cnc(N[C@H]3CC[C@H](N(C)C)CC3)nc12 [Compound 135, 2-Chloro-N-(5-(2-(((1,4-trans)-4-(dimethylamino)cyclohexyl)amino)-8-methylpyrido[3,2-d]pyrimidin-6-yl)pyridin-2-yl)benzenesulfonamide]
0.23 nM	O=S(=O)(Cc1ccc(F)cc1)Nc1ccc(-c2cc(C(F)F)c3nc(N[C@@H]4CNC[C@@H](F)C4)ncc3n2)cc1F [Compound 139, N-[4-[8-(Difluoromethyl)-2-[[(3S,5S)-5-fluoro-3-piperidyl]amino]pyrido[3,2-d]pyrimidin-6-yl]-2-fluoro-phenyl]-1-(4-fluorophenyl)methanesulfonamide hydrochloride]
0.21 nM	COCc1cc(-c2ccc(NS(=O)(=O)Cc3ccc(F)cc3)c(F)c2)nc2cnc(N[C@H]3CC[C@H](N(C)C)CC3)nc12 [Compound 138, N-(4-(2-(((1,4-trans)-4-(Dimethylamino)cyclohexyl)amino)-8-(methoxymethyl)pyrido[3,2-d]pyrimidin-6-yl)-2-fluorophenyl)-1-(4-fluorophenyl)methanesulfonamide]
0.21 nM	Cc1cc(-c2ccc(NS(=O)(=O)c3cccnc3)c(F)c2)nc2cnc(N[C@H]3CC[C@H](N(C)C)CC3)nc12 [Compound 154, N-[4-[2-[[(1,4-trans)-4-(Dimethylamino)cyclohexyl]amino]-8-methyl-pyrido[3,2-d]pyrimidin-6-yl]-2-fluoro-phenyl]pyridine-3-sulfonamide]
0.13 nM	Cc1cc(-c2ccc(NS(=O)(=O)Cc3ccc(C#N)cc3)c(F)c2)nc2cnc(N[C@@H]3CNC[C@@H](F)C3)nc12 [Compound 116, 1-(4-Cyanophenyl)-N-(2-fluoro-4-(2-(((3S,5S)-5-fluoropiperidin-3-yl)amino)-8-methylpyrido[3,2-d]pyrimidin-6-yl)phenyl)methanesulfonamide formate]
0.23 nM	Cc1cc(-c2ccc(NS(=O)(=O)Cc3ccc(F)cc3)c(F)c2F)nc2cnc(N[C@H]3CC[C@H](N(C)C)CC3)nc12 [Compound 132, N-(4-(2-(((1,4-trans)-4-(Dimethylamino)cyclohexyl)amino)-8-methylpyrido[3,2-d]pyrimidin-6-yl)-2,3-difluorophenyl)-1-(4-fluorophenyl)methanesulfonamide]
0.16 nM	Cc1cc(-c2cc(F)c(NS(=O)(=O)Cc3ccc(F)cc3)c(F)c2F)nc2cnc(N[C@H]3CC[C@H](N(C)C)CC3)nc12 [Compound 153, N-(4-(2-(((1,4-trans)-4-(Dimethylamino)cyclohexyl)amino)-8-methylpyrido[3,2-d]pyrimidin-6-yl)-2,3,6-trifluorophenyl)-1-(4-fluorophenyl)methanesulfonamide]
0.3 nM	Cc1cc(-c2ccc(NS(=O)(=O)Cc3ccccc3)c(F)c2)nc2cnc(N[C@@H]3CNC[C@@H](F)C3)nc12 [Compound 106, N-(2-Fluoro-4-(2-(((3S,5S)-5-fluoropiperidin-3-yl)amino)-8-methylpyrido[3,2-d]pyrimidin-6-yl)phenyl)-1-phenylmethanesulfonamide]
0.16 nM	CN(C)[C@H]1CC[C@H](Nc2ncc3nc(-c4ccc(NS(=O)(=O)CCC(F)(F)F)c(F)c4)cc(C(F)F)c3n2)CC1 [Compound 144, N-[(1,4-trans)-4-[8-(Difluoromethyl)-2-[[4-(dimethylamino)cyclohexyl]amino]pyrido[3,2-d]pyrimidin-6-yl]-2-fluoro-phenyl]-3,3,3-trifluoro-propane-1-sulfonamide]
0.11 nM	CCC(F)(F)CS(=O)(=O)Nc1ccc(-c2cc(C)c3nc(N[C@H]4CC[C@H](N(C)C)CC4)ncc3n2)cc1F [Compound 117, N-(4-(2-(((1,4-trans)-4-(Dimethylamino)cyclohexyl)amino)-8-methylpyrido[3,2-d]pyrimidin-6-yl)-2-fluorophenyl)-2,2-difluorobutane-1-sulfonamide formate]
5.7 nM	O=S(=O)(Cc1ccccc1)Nc1ccc(-c2cnc3nc(N[C@@H]4CNC[C@@H](F)C4)ncc3c2)cc1F [Compound 109, N-(2-Fluoro-4-(2-(((3S,5S)-5-fluoropiperidin-3-yl)amino)pyrido[2,3-d]pyrimidin-6-yl)phenyl)-1-phenylmethanesulfonamide]
